Assay results from publication PMC11324297, “CDKL3 is a targetable regulator of cell cycle progression in cancers” (The Journal of Clinical Investigation, 2024).

Columns and labels:
[1] = system: MDA-MB-231; assay: cells; set-up: tumour cell growth suppression, dose response, 24 h; settings: Homo sapiens, MDA-MB-231, 24 h
Procedure: (§1) On the basis of a previous publication, a potential CDKL3 inhibitor candidate caught our attention. […] Thus, we intended to generate an efficient CDKL3 inhibitor based on this chemical backbone for cell cycle arrest. As the first step, the original compound (ASC67) was synthesized, and the performance was evaluated ([50]). The addition of ASC67 could gradient-dependently diminish the phosphorylation of Rb by CDKL3 while not influencing CDK4 or CDK2 in vitro (Figure 8B). The effectiveness of this chemical was then evaluated using a variety of cancer cell lines, including estrogen-responsive (ER^+) breast cancer, for which palbociclib is administrated clinically ([51]). […] As a direct comparison, the clinically approved CDK4/6 inhibitor had IC50 values ranging from 1 to 5 μM in different cell lines (Figure 8, C–F, and Supplemental Figure 6, A–F) ([47], [52]–[55]). This information made it evident that ASC67 holds considerable promise in cancer treatment and can be used as a backbone compound for further optimization. Chemical treatments Cdk1/2 Inhibitor III was dissolved in DMSO with a concentration of 25mM as stock solution. Cells were treated at a final concentration of 1.2μM. 5μM was used for in vitro kinase assay. Palbociclib was dissolved in DMSO with a concentration of 100mM as stock solution. Cells were treated with Palbociclib at a final concentration of 0.8μM. 5μM was used for in vitro kinase assay. Thymidine was dissolved in ddH2O with a concentration of 200mM. Cells were treated with Thymidine at a final concentration of 2mM. ASC67 was dissolved in DMSO with a concentration of 300mM as stock solution. For IC50 assay, cells were treated at a concentration range from 0 to 300μM. For in vitro kinase assay, the concentration ranging from 0 to 0.5μM was used. The inhibitor C3I-22 (HZ1) was dissolved in DMSO with a concentration of 300mM as stock solution. For IC50 assay, cells were treated with a concentration range from 0 to 300μM. For in vitro kinase assay, the concentration ranging from 0 to 0.1μM was used. Organoids derived from colon cancer patients were treated with a concentration range from 0 to 5μM. Balb/cA-nude and C57BL/6J-Apcmin/+ mice were treated with a concentration of 1mg/kg (suspended in PBS) through oral gavage. Other C3I inhibitors were dissolved in DMSO with a concentration of 200mM as stock solution. In vitro protein purification GST-tagged proteins were transformed into E. coli BL21 competent cells, and then protein expression was induced by adding IPTG (Beyotime Biotechnology) at 18°C for 6 to 10 hours. The bacterial culture was centrifuged (600xg, 10 min, 4°C), and the pellets were resuspended in 20mL lysis buffer (50mM Tris-HCl, 300mM NaCl, and 10% (v/v) glycerol, 1mM [compound left out], pH 7.9) and sonicated with 50% power on a SCIENTZ JY92-IIN sonicator for 20 minutes (5 seconds per time, with an interval of 5 seconds).

[2] = system: HeLa; assay: cells; set-up: tumour cell growth suppression, dose response, 24 h; settings: Homo sapiens, 24 h
Procedure: as §1

[3] = system: U2OS; assay: cells; set-up: tumour cell growth suppression, dose response, 24 h; settings: Homo sapiens, 24 h
Procedure: as §1

[4] = system: MDA-MB-231; assay: cells; set-up: tumour cell growth suppression, dose response, 72 h; settings: Homo sapiens, MDA-MB-231, 72 h
Procedure: as §1

[5] = system: HeLa; assay: cells; set-up: tumour cell growth suppression, dose response, 72 h; settings: Homo sapiens, 72 h
Procedure: as §1

[6] = system: U2OS; assay: cells; set-up: tumour cell growth suppression, dose response, 72 h; settings: Homo sapiens, 72 h
Procedure: as §1

[7] = system: DLD-1; assay: cells; set-up: tumour cell growth suppression, dose response, 24 h; settings: Homo sapiens, 24 h, parental cells
Procedure: as §1

[8] = system: DLD-1; assay: cells; set-up: tumour cell growth suppression, dose response, 72 h; settings: Homo sapiens, 72 h, parental cells
Procedure: as §1

[9] = system: MCF7; assay: cells; set-up: tumour cell growth suppression, dose response, 24 h; settings: Homo sapiens, 24 h, parental cells
Procedure: as §1

[10] = system: T47D; assay: cells; set-up: tumour cell growth suppression, dose response, 24 h; settings: Homo sapiens, 24 h, parental cells
Procedure: as §1

[11] = system: MCF7; assay: cells; set-up: tumour cell growth suppression, dose response, 72 h; settings: Homo sapiens, 72 h, parental cells
Procedure: as §1

[12] = system: T47D; assay: cells; set-up: tumour cell growth suppression, dose response, 72 h; settings: Homo sapiens, 72 h, parental cells
Procedure: as §1

[13] = biological target: Stub1 (UniProt Q9UNE7); assay: co-immunoprecipitation; settings: reference: CDK4 wild type; sites T172
[14] = biological target: UBE3A (UniProt Q05086); assay: co-immunoprecipitation; settings: reference: CDK4 wild type; sites T172
[15] = biological target: Trim28 (UniProt Q13263); assay: co-immunoprecipitation; settings: reference: CDK4 wild type; sites T172

In the case of `N#CCc1ccc(Nc2nccc(Nc3cc(C4CCCC4)n[nH]3)n2)cc1` [ASC67], the IC50 [1] is reported as 1830 nM, the IC50 [2] is reported as 954 nM and the IC50 [3] is reported as 1810 nM. The IC50 [4] was 381 nM, the IC50 [5] was 1550 nM and the IC50 [6] was 998 nM.
Work on `CC(=O)c1ccc(Nc2nccc(Nc3cc(C4CCCC4)n[nH]3)n2)cc1` [C3I-22, HZ1] yielded an IC50 [7] of 600 nM, an IC50 ([3]; parental cells) of 1320 nM and an IC50 [8] of 147 nM. The IC50 [6] was 348 nM and the IC50 ([6]; parental cells) was 415 nM.
Work on `O=C(O)c1ccc(Nc2nccc(Nc3cc(C4CCCC4)n[nH]3)n2)cc1` [C3I-22-1, 4-((4-((3-cyclopentyl-1H-pyrazol-5-yl)amino)pyrimidin-2-yl)amino)benzoic acid] yielded an IC50 [6] of 38800 nM.
`CC(=O)c1c(C)c2cnc(Nc3ccc(N4CCNCC4)cn3)nc2n(C2CCCC2)c1=O` [palbociclib] was tested, and the IC50 [1] was 5200 nM, the IC50 [9] was 2880 nM and the IC50 [2] was 4240 nM. It also gave an IC50 [3] of 3520 nM, an IC50 [10] of 2150 nM and an IC50 [11] of 2570 nM. For the same compound, the IC50 [12] was 1860 nM.
In the case of CDK4 (from UniProt P11802) CDK4 T172A, the “binding against the reference” value [13] is reported as “stronger”, the “binding against the reference” value [14] is reported as “stronger” and the “binding against the reference” value [15] is reported as “stronger”.
